Reference: the CheMixHub ionic liquid set

Experiment: xn = mol fraction of the nth substance listed

CCCC[N+](CCCC)(CCCC)Cc1ccccc1.[Cl-] + CC(C)[C@H](N)C(=O)O + O
101 kPa
Conditions | electrical conductivity, 298.15 K [S/m] | electrical conductivity, 303.15 K [S/m] | electrical conductivity, 308.15 K [S/m] | viscosity, 298.15 K [mPa·s] | viscosity, 303.15 K [mPa·s] | viscosity, 308.15 K [mPa·s]
x2 = 1.802e-05, x1 = 1.802e-05 | 0.0145 | 0.0163 | 0.0169 | – | 0.825 | 0.704
x2 = 1.804e-05, x1 = 5.406e-05 | 0.0303 | 0.0313 | 0.0331 | – | – | –
x2 = 1.805e-05, x1 = 9.009e-05 | 0.0341 | 0.0371 | 0.0391 | – | – | –
x2 = 4.506e-05, x1 = 1.802e-05 | 0.0166 | 0.0172 | 0.0185 | – | 0.838 | 0.719
x2 = 4.509e-05, x1 = 5.405e-05 | 0.0312 | 0.0322 | 0.0342 | – | – | –
x2 = 4.511e-05, x1 = 9.009e-05 | 0.0353 | 0.0383 | 0.0406 | 1.296 | – | –
x2 = 7.21e-05, x1 = 1.802e-05 | 0.0185 | 0.0193 | 0.0209 | – | 0.851 | 0.733
x2 = 7.214e-05, x1 = 5.405e-05 | 0.0325 | 0.0335 | 0.0356 | 1.273 | – | –
x2 = 7.218e-05, x1 = 9.009e-05 | 0.0365 | 0.0394 | 0.0421 | – | – | –
x2 = 9.913e-05, x1 = 1.802e-05 | 0.0205 | 0.0215 | 0.0234 | – | 0.864 | 0.748
x2 = 9.919e-05, x1 = 5.405e-05 | 0.0338 | 0.0346 | 0.0363 | 1.288 | – | –
x2 = 9.925e-05, x1 = 9.008e-05 | 0.0379 | 0.0409 | 0.0435 | – | 1.165 | –
x2 = 0.0001262, x1 = 1.802e-05 | 0.0222 | 0.0236 | 0.0249 | – | 0.878 | 0.763
x2 = 0.0001262, x1 = 5.405e-05 | 0.0347 | 0.0357 | 0.0377 | – | – | –
x2 = 0.0001263, x1 = 9.008e-05 | 0.0391 | 0.0421 | 0.0447 | – | – | –
x2 = 0.0001532, x1 = 1.802e-05 | 0.0235 | 0.0251 | 0.0266 | – | – | 0.779
x2 = 0.0001533, x1 = 5.405e-05 | 0.0356 | 0.0368 | 0.0389 | – | – | –
x2 = 0.0001534, x1 = 9.008e-05 | 0.0407 | 0.0435 | 0.0463 | – | – | –

CCO + CCCCCCCC(=O)[O-].c1c[nH+]c[nH]1
101.3 kPa, x1 = 1
Conditions | viscosity [mPa·s]
293.15 K | 1.21
303.15 K | 1

CCO + CCCCCCCCCCCCCCCC[N+](C)(C)C.[Br-] + O
Conditions | electrical conductivity [S/m]
298.2 K, 101.3 kPa, x2 = 0, x1 = 0.05064 | 0.00019

CCCCCC[n+]1ccn(C)c1C.O=S(=O)([N-]S(=O)(=O)C(F)(F)F)C(F)(F)F + CCCCCCCCCCCCCC[P+](CCCCCC)(CCCCCC)CCCCCC.O=S(=O)([N-]S(=O)(=O)C(F)(F)F)C(F)(F)F
Conditions | viscosity [mPa·s]
278.15 K, 100 kPa, x1 = 0.6 | 930
